Data as given in PMC6630718, “Discovery of Novel UV-Filters with Favorable Safety Profiles in the 5-Arylideneimidazolidine-2,4-dione Derivatives Group” (Molecules, 2019).
Values joined by “and” are separate entries in the source; they are usually repeats but may differ in a detail not shown here. Identical values can stand only once.

Columns and labels:
[1] = Ames MPF Penta 2 microplate mutagenicity assay, E. coli; assay type: cell-based; conditions: Escherichia coli, read-out: FIB (fold induction over baseline)
Experimental: (§1) The assay is a liquid microplate modification of the traditional Salmonella test. During the procedure, bacteria are exposed to different concentrations of a test compound for 90 min in a medium containing sufficient histidine (S. typhimurium) or tryptophan (E. coli) to support cell divisions. Then, the cultures are diluted in pH indicator medium lacking histidine or tryptophan and aliquoted into 48 wells of a 384-well plate. Within 48 hours, cells that have undergone reversion to amino acid prototrophy will grow into colonies. Bacterial metabolism reduces pH of the medium, changing the color of that well from purple to yellow (https://www.xenometrix.ch).
(§2) The following strains were used in the study: S. typhimurium TA98, TA100, TA1535, TA1537 and E. coli wp2 uvrA[pKM101]. TA100, TA1535 and E. coli strains are used for the detection of base substitution mutations, whereas TA98 and TA1537 are utilized for the detection of frameshift mutations. S. typhimurium strains have GC base pairs, whereas E. coli strain has AT base pair at their primary reversion site and detect certain oxidizing mutagens, cross-linking agents and hydrazines.
(§3) The test procedure provided by Xenometrix (https://www.xenometrix.ch) and described earlier was followed. Briefly, the bacterial strains were grown overnight in exposure medium and exposed to test compounds 4g and 3b in 24-well plates for 90 min at 37 °C with agitation in the absence (–S9) or presence (+S9) of 4.5% phenobarbital/ β-naphthoflavone-induced rat liver S9. Compounds 4g and 3b were dissolved in DMSO and tested at final concentrations of 0.1, 0.2 and 0.5 mM. After the preincubation, the cultures were diluted in the indicator medium and the contents of each 24-well culture were distributed into 48 wells on a 384-well plate and incubated further for 48 h at 37 °C without agitation. After the exposure, the number of wells containing bacteria was scored by eye for yellow wells. Positive and negative controls were included in the assay, and all doses were done in triplicate.
(§4) Pure DMSO was used as the negative control.
(§5) The fold increase of revertants relative to the solvent control was determined by dividing the mean number of positive wells at each dose by the solvent control at baseline. The solvent control at baseline was defined as the mean number of positive wells in the solvent control plus one standard deviation (SD). When an increase of more than 2-fold relative to the baseline at more than one dose with a dose–response is observed the sample is classified as positive, whereas when no response >2 times the baseline and no dose–response is stated the sample is negative.

[2] = In vitro stability in mouse liver microsomes; assay type: in vitro ADME; conditions: for ester hydrolysis in the presence of microsomes: independently of the presence of a NADPH-regenerating system; for Probable Transformation / half-life at 20 µM / microsomal CLint at 20 µM: mouse liver microsomes; for half-life at 20 µM / microsomal CLint at 20 µM: mouse; for half-life at 20 µM: pH 7.4, mouse liver microsomes 0.8 mg/mL, 20 µM compound, NADPH-regenerating system, 37 °C, read-out: t ½; for microsomal CLint at 20 µM: pH 7.4, mouse liver microsomes, calculated from t1/2
In short: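 Compound (20 µM) with mouse liver microsomes (0.8 mg/mL), potassium phosphate pH 7.4, NADPH-regenerating system, 37 °C for 15–60 min; parent remaining by UPLC/MS, two repeats. t1/2 from ln % remaining versus time; Clint = (incubation volume/protein) × 0.693/t1/2.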

[3] = Photostability in methanol solutions (solar light simulator); assay type: physicochemical; set-up: λmax pre-irradiation: unit not given beside the values; conditions: methanol solution; for % of initial AUC post-irradiation / λmax post-irradiation: 1h irradiation at 500 W/m2
In short: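 Compounds at 25 or 50 µM in methanol, in stoppered quartz cuvettes, were irradiated 1 h at 500 W/m^2 (UV dose 218 kJ/m^2). A solar simulator filtered below 290 nm with an IR block was used. UV absorption spectra before and after irradiation were compared, with UPLC-MS/MS analysis, in duplicate.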

[4] = Ames MPF Penta 2 microplate mutagenicity assay, TA100; assay type: cell-based; conditions: Salmonella typhimurium, read-out: FIB (fold induction over baseline)
Experimental: as §1, §2, §3, §4, §5

[5] = Ames MPF Penta 2 microplate mutagenicity assay, TA1537; conditions: Salmonella typhimurium, FIB (fold induction over baseline)
Experimental: as §1, §2, §3, §4, §5

[6] = Photostability in macrogol formulations on PMMA plates (solar light simulator); assay type: physicochemical; conditions: for % of Initial AUC / % of Initial SPFin vitro / % of Initial UVA PF: after 1 h irradiation at 500 W/m^2, formulation F1
In short: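 Macrogol formulations (2% w/w) applied at 1.3 mg/cm² on PMMA plates were irradiated 1 h at 500 W/m² (218 kJ/m² UV) in a solar simulator with <290 nm cut-off and IR block. SPFin vitro, UVA PF and AUC were compared before and after exposure, with methanol washes analysed by UPLC-MS/MS, in duplicate.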

[7] = E. coli wp2 uvrA[pKM101] without S9 (–S9), E. coli WP2, –S9, 0.1 mM
[8] = E. coli wp2 uvrA[pKM101] without S9 (–S9), E. coli WP2, –S9, 0.2 mM
[9] = E. coli wp2 uvrA[pKM101] without S9 (–S9), E. coli WP2, –S9, 0.5 mM
[10] = S. typhimurium TA100 without S9 (–S9), TA100, –S9, 0.1 mM
[11] = S. typhimurium TA100 without S9 (–S9), TA100, –S9, 0.2 mM
[12] = S. typhimurium TA100 without S9 (–S9), TA100, –S9, 0.5 mM

Compound	fold induction at 90 min, 0.1 mM [1, 7]	fold induction at 90 min, 0.2 mM [1, 8]	fold induction at 90 min, 0.5 mM [1, 9]	fold induction at 90 min, 0.1 mM ([1]; E. coli WP2, +S9, 0.1 mM)	fold induction at 90 min, 0.2 mM ([1]; E. coli WP2, +S9, 0.2 mM)	fold induction at 90 min, 0.5 mM ([1]; E. coli WP2, +S9, 0.5 mM)	ester hydrolysis in the presence of microsomes [2]	Probable Transformation [2]	half-life at 20 µM [2] [min]	microsomal CLint at 20 µM [2] [µL/min/mg]	λmax pre-irradiation [3]	% of initial AUC post-irradiation [3] [%]	λmax post-irradiation [3]	fold induction at 90 min, 0.1 mM [4, 10]	fold induction at 90 min, 0.2 mM [4, 11]	fold induction at 90 min, 0.5 mM [4, 12]	fold induction at 90 min, 0.1 mM ([4]; TA100, +S9, 0.1 mM)	fold induction at 90 min, 0.2 mM ([4]; TA100, +S9, 0.2 mM)	fold induction at 90 min, 0.5 mM ([4]; TA100, +S9, 0.5 mM)	fold induction at 90 min, 0.1 mM ([5]; TA1537, +S9, 0.1 mM)	other results
CCOC(=O)CN1C(=O)/C(=C/c2ccc(OC)cc2)N(CC(=O)OCC)C1=O [Compound 3b, Diethyl 2,2′-((Z)-4-(4-methoxybenzylidene)-2,5-dioxoimidazolidine-1,3-diyl)diacetate]	0.3	0.7	0.3	0.7	0.6	0.4	hydrolysed to monoesters	hydrolysis O-dealkylation	12	75	318	114.39	326	1.1	0.8	0.7	0.7	0.6	0.6	1.1	percentage of photoisomer formation ([3]; post-irradiation chromatogram): 28.4%; fold induction at 90 min, 0.2 mM ([5]; TA1537, +S9, 0.2 mM): 1.1; fold induction at 90 min, 0.5 mM ([5]; TA1537, +S9, 0.5 mM): 0.3; fold induction at 90 min, 0.1 mM ([5]; TA1537, –S9, 0.1 mM): 0.3; fold induction at 90 min, 0.2 mM ([5]; TA1537, –S9, 0.2 mM): 0.3; fold induction at 90 min, 0.5 mM ([5]; TA1537, –S9, 0.5 mM): 0.3; % of Initial AUC [6]: 84.67% and 76.50%; % of Initial SPFin vitro [6]: 80.46% and 72.69%; % of Initial UVA PF [6]: 87.04% and 84.08%; photostability (in words) ([6]; macrogol formulation): very good; photoisomer in post-irradiation chromatogram ([6]; macrogol formulation, UPLC-MS/MS): 32.1%; new photoproduct (besides photoisomer), relative peak area ([6]; macrogol formulation, post-irradiation chromatogram): 2.4%
CCOC(=O)CN1C(=O)/C(=C/C=C/c2ccc(OC)cc2)N(CC(=O)OCC)C1=O [Compound 4g, Diethyl 2,2′-((Z)-4-((E)-3-(4-methoxyphenyl)allylidene)-2,5-dioxoimidazolidine-1,3-diyl)diacetate]	0.3	1.3	1.3	0.6	1	0.7	hydrolysed to monoesters	hydrolysis O-dealkylation	3	> 300	379	80.15	378	1.1	0.3	0.6	0.7	0.5	0.5	1.4	decrease of AUC after irradiation [3]: 19.9%; fold induction at 90 min, 0.2 mM ([5]; TA1537, +S9, 0.2 mM): 1.1; fold induction at 90 min, 0.5 mM ([5]; TA1537, +S9, 0.5 mM): 0.8; fold induction at 90 min, 0.1 mM ([5]; TA1537, –S9, 0.1 mM): 0.3; fold induction at 90 min, 0.2 mM ([5]; TA1537, –S9, 0.2 mM): 1.7; fold induction at 90 min, 0.5 mM ([5]; TA1537, –S9, 0.5 mM): 0.5; % of Initial AUC [6]: 51.98%; % of Initial SPFin vitro [6]: 86.29%; % of Initial UVA PF [6]: 34.39%; photostability (in words) ([6]; macrogol formulation): favorable photostability
